Reference: PubChem BioAssay AID2060887 (Molecular Pharmacology Branch, DTP, NCI, 2025)

Tested on: 782815-120-R-J1-PDC complex spheroid viability
Assay: Anticancer human tumor 782815-120-R-J1-PDC patient-derived colon adenocarcinoma cell line growth inhibition [RAS]
Conditions: for IC50: curve of first compound; for viability, T/C: stronger effect = lower value
How it was run: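 Tumour cells grown as complex spheroids with HUVEC endothelial cells and mesenchymal stem cells, treated with RAS pathway inhibitor combinations. Each agent spans half-log steps from near clinical Cmax, or 10 microM where Cmax is unknown.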

[1] = second compound 0.000949 µM, first compound 0.0316 µM
[2] = second compound 0.000949 µM, first compound 0.1 µM
[3] = second compound 0.000949 µM, first compound 0.316 µM
[4] = second compound 0.000949 µM, first compound 1 µM
[5] = second compound 0.003 µM, first compound 0.0316 µM
[6] = second compound 0.003 µM, first compound 0.1 µM
[7] = second compound 0.003 µM, first compound 0.316 µM
[8] = second compound 0.003 µM, first compound 1 µM
[9] = second compound 0.00949 µM, first compound 0.0316 µM
[10] = second compound 0.00949 µM, first compound 0.1 µM
[11] = second compound 0.00949 µM, first compound 0.316 µM
[12] = second compound 0.00949 µM, first compound 1 µM
[13] = second compound 0.03 µM, first compound 0.0316 µM
[14] = second compound 0.03 µM, first compound 0.1 µM
[15] = second compound 0.03 µM, first compound 0.316 µM
[16] = second compound 0.03 µM, first compound 1 µM
[17] = second compound 0.0949 µM, first compound 0.0316 µM
[18] = second compound 0.0949 µM, first compound 0.1 µM
[19] = second compound 0.0949 µM, first compound 0.316 µM
[20] = second compound 0.0949 µM, first compound 1 µM
[21] = second compound 0.3 µM, first compound 0.0316 µM
[22] = second compound 0.3 µM, first compound 0.1 µM
[23] = second compound 0.3 µM, first compound 0.316 µM
[24] = second compound 0.3 µM, first compound 1 µM
[25] = second compound 0.000949 µM, first compound 3.16 µM
[26] = second compound 0.000949 µM, first compound 10 µM
[27] = second compound 0.003 µM, first compound 3.16 µM
[28] = second compound 0.003 µM, first compound 10 µM
[29] = second compound 0.00949 µM, first compound 3.16 µM
[30] = second compound 0.00949 µM, first compound 10 µM
[31] = second compound 0.03 µM, first compound 3.16 µM
[32] = second compound 0.03 µM, first compound 10 µM
[33] = second compound 0.0949 µM, first compound 3.16 µM
[34] = second compound 0.0949 µM, first compound 10 µM
[35] = second compound 0.3 µM, first compound 3.16 µM
[36] = second compound 0.3 µM, first compound 10 µM
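Note: spheroids exposed to compounds for 7 days before reading.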
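Throughout, for viability, T/C: 100% = DMSO vehicle control viability.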

With `C=CC(=O)N1CCN(c2nc(OCC3CCCN3C)nc3c(F)c(-c4nc(N)cc(C)c4C(F)(F)F)c(Cl)cc23)C(C)C1` (stereo unspecified) + CCn1c(-c2cc(N3CCN(C)CC3)cnc2C(C)OC)c2c3cc(ccc31)-c1csc(n1)CC(NC(=O)C1CC1C)C(=O)N1CCCC(N1)C(=O)OCC(C)(C)C2 the IC50 (second compound 0.000949 µM) was > 1 µM, the IC50 (second compound 0.003 µM) was > 1 µM and the IC50 (second compound 0.00949 µM) was < 0.00316 µM. The IC50 (second compound 0.03 µM) was < 0.00316 µM, the IC50 (second compound 0.0949 µM) was < 0.00316 µM and the IC50 (second compound 0.3 µM) was < 0.00316 µM. The viability, T/C (second compound 0.000949 µM, first compound 0.00316 µM) was 82.5%, the viability, T/C (second compound 0.000949 µM, first compound 0.01 µM) was 74.3% and the viability, T/C [1] was 70%. It also gave a viability, T/C [2] of 79.5%, a viability, T/C [3] of 77.1% and a viability, T/C [4] of 90%. It also gave a viability, T/C (second compound 0.003 µM, first compound 0.00316 µM) of 57.1%, a viability, T/C (second compound 0.003 µM, first compound 0.01 µM) of 56.9% and a viability, T/C [5] of 57.9%. The viability, T/C [6] was 49.6%, the viability, T/C [7] was 55% and the viability, T/C [8] was 57.2%. For the same compound, the viability, T/C (second compound 0.00949 µM, first compound 0.00316 µM) was 31.1%, the viability, T/C (second compound 0.00949 µM, first compound 0.01 µM) was 32% and the viability, T/C [9] was 36.7%. It also gave a viability, T/C [10] of 29.8%, a viability, T/C [11] of 31.6% and a viability, T/C [12] of 31%. For the same compound, the viability, T/C (second compound 0.03 µM, first compound 0.00316 µM) was 19.6%, the viability, T/C (second compound 0.03 µM, first compound 0.01 µM) was 22% and the viability, T/C [13] was 17.9%. For the same compound, the viability, T/C [14] was 20.6%, the viability, T/C [15] was 18.1% and the viability, T/C [16] was 19.8%. For the same compound, the viability, T/C (second compound 0.0949 µM, first compound 0.00316 µM) was 16%, the viability, T/C (second compound 0.0949 µM, first compound 0.01 µM) was 14.3% and the viability, T/C [17] was 16.1%. For the same compound, the viability, T/C [18] was 15.5%, the viability, T/C [19] was 15.2% and the viability, T/C [20] was 13.5%. For the same compound, the viability, T/C (second compound 0.3 µM, first compound 0.00316 µM) was 16.1%, the viability, T/C (second compound 0.3 µM, first compound 0.01 µM) was 16.3% and the viability, T/C [21] was 15.6%. For the same compound, the viability, T/C [22] was 16.5%, the viability, T/C [23] was 16.2% and the viability, T/C [24] was 13.6%.
With `CC(C)NCC(C(=O)N1CCN(c2ncnc3c2C(C)CC3O)CC1)c1ccc(Cl)cc1` (stereo unspecified) + CCn1c(-c2cc(N3CCN(C)CC3)cnc2C(C)OC)c2c3cc(ccc31)-c1csc(n1)CC(NC(=O)C1CC1C)C(=O)N1CCCC(N1)C(=O)OCC(C)(C)C2 the IC50 (second compound 0.000949 µM) was > 10 µM, the IC50 (second compound 0.003 µM) was > 10 µM and the IC50 (second compound 0.00949 µM) was < 0.0316 µM. For the same compound, the IC50 (second compound 0.03 µM) was < 0.0316 µM, the IC50 (second compound 0.0949 µM) was < 0.0316 µM and the IC50 (second compound 0.3 µM) was < 0.0316 µM. It also gave a viability, T/C [1] of 79.6%, a viability, T/C [2] of 77.7% and a viability, T/C [3] of 74.5%. For the same compound, the viability, T/C [4] was 71.6%, the viability, T/C [25] was 77.4% and the viability, T/C [26] was 87.9%. For the same compound, the viability, T/C [5] was 57.2%, the viability, T/C [6] was 54.8% and the viability, T/C [7] was 61.9%. For the same compound, the viability, T/C [8] was 50.3%, the viability, T/C [27] was 57.2% and the viability, T/C [28] was 51.3%. The viability, T/C [9] was 34.2%, the viability, T/C [10] was 33.1% and the viability, T/C [11] was 35.3%. It also gave a viability, T/C [12] of 30.1%, a viability, T/C [29] of 30% and a viability, T/C [30] of 26.4%. The viability, T/C [13] was 20.2%, the viability, T/C [14] was 19.9% and the viability, T/C [15] was 19.1%. It also gave a viability, T/C [16] of 17.2%, a viability, T/C [31] of 16.5% and a viability, T/C [32] of 16.1%. It also gave a viability, T/C [17] of 17.2%, a viability, T/C [18] of 17.7% and a viability, T/C [19] of 18.8%. The viability, T/C [20] was 15%, the viability, T/C [33] was 16.1% and the viability, T/C [34] was 11%. For the same compound, the viability, T/C [21] was 18.3%, the viability, T/C [22] was 17.4% and the viability, T/C [23] was 15.3%. The viability, T/C [24] was 14.8%, the viability, T/C [35] was 14.3% and the viability, T/C [36] was 8.75%.
In the case of `CC1(O)CCCC1n1c(=O)c(C(F)F)cc2cnc(NC3CCN(S(C)(=O)=O)CC3)nc21` (stereo unspecified) + CCn1c(-c2cccnc2C(C)OC)c2c3cc(ccc31)N1CCOC(CC(NC(=O)C(C(C)C)N(C)C(=O)C3(F)CCN(C(=O)C#CC(C)(C)N(C)C)CC3)C(=O)N3CCCC(N3)C(=O)OCC(C)(C)C2)C1, the IC50 (second compound 0.000949 µM) is reported as 4.5 µM, the IC50 (second compound 0.003 µM) is reported as 4.63 µM and the IC50 (second compound 0.00949 µM) is reported as 4.04 µM. It also gave an IC50 (second compound 0.03 µM) of 4.5 µM, an IC50 (second compound 0.0949 µM) of 4.86 µM and an IC50 (second compound 0.3 µM) of 4.29 µM. For the same compound, the viability, T/C [1] was 61.7%, the viability, T/C [2] was 57.9% and the viability, T/C [3] was 65.8%. The viability, T/C [4] was 63%, the viability, T/C [25] was 61.5% and the viability, T/C [26] was 23.8%. It also gave a viability, T/C [5] of 63.4%, a viability, T/C [6] of 64.5% and a viability, T/C [7] of 63.5%. It also gave a viability, T/C [8] of 54.9%, a viability, T/C [27] of 65.2% and a viability, T/C [28] of 25.2%. For the same compound, the viability, T/C [9] was 57.6%, the viability, T/C [10] was 55.1% and the viability, T/C [11] was 64.3%. It also gave a viability, T/C [12] of 70.3%, a viability, T/C [29] of 55% and a viability, T/C [30] of 24%. The viability, T/C [13] was 69.3%, the viability, T/C [14] was 53.7% and the viability, T/C [15] was 69.1%. For the same compound, the viability, T/C [16] was 61.9%, the viability, T/C [31] was 61.3% and the viability, T/C [32] was 24.8%. It also gave a viability, T/C [17] of 67%, a viability, T/C [18] of 59.5% and a viability, T/C [19] of 70.3%. The viability, T/C [20] was 65.2%, the viability, T/C [33] was 71.1% and the viability, T/C [34] was 22%. It also gave a viability, T/C [21] of 66.7%, a viability, T/C [22] of 50.9% and a viability, T/C [23] of 58%. The viability, T/C [24] was 69.2%, the viability, T/C [35] was 61.5% and the viability, T/C [36] was 18.7%.
